Laboratory results as given in US4323559A, “Compounds derived from N-acetyl-nor-muramyl-L-alanyl-D-isoglutamic acid and other compounds and biologically active compositions containing such compounds” (Agencie Nationale de Valorisation de la Recherche (ANVAR), priority 1973, dated 1982).

Assays:
Klebsiella pneumoniae = experiment: Anti-infectious protection of mice against Klebsiella pneumoniae infection; type: in vivo; settings: compound iv. 100 μg at -24 h; for % protection: difference of % survivors vs controls; for % survival D + 3 / % survival D + 5 / % survival D + 10: mice
[1] = tested on: bovine serum albumin (BSA); experiment: Adjuvant activity in aqueous phase: anti-albumin antibody titer by passive hemagglutination; type: in vivo, Swiss mice; settings: S.C., 100 μg with BSA 0.5 mg/animal in isotonic saline; for Titer of antibody 28th day: Swiss mice; for Titer of antibody 34th day / Titer of antibody 36th day: booster 0.1 mg BSA at day 30
Procedure: In the series of tests of which the results are indicated hereafter, the influence of the active principle according to the invention was assessed as bearing on the anti-albumin antibody rate, particularly under the following conditions. Groups of 8 two-month-old Swiss mice received by subcutaneous injection (SC) or orally (PO) 0.5 mg of antigen constituted by the bovine serum albumin (BSA) with or without the substance tested in an isotonic saline solution. This large dose of antigen, because of its closeness to the limit paralysing dose with respect to the immunising response, elicits but a weak or no immune response in the controls; it therefore constitutes a severe criterion for showing the activity of an adjuvant substance. […] The proportion of antibody was determined by passive hemagglutination by using sheep red blood cells treated with formalin and coated with the antigen studied according to the method described by […] and […]. Immunol., 100, 641-648, 1968). Blood samples were taken 14, 28, 34 and 36 days after the first injection.

| SMILES | % protection (Klebsiella pneumoniae; K. pneumoniae im. 2 × 10^4) [%] | % survival D + 3 (Klebsiella pneumoniae; K. pneumoniae im. 2 × 10^4) [%] | % survival D + 5 (Klebsiella pneumoniae; K. pneumoniae im. 2 × 10^4) [%] | % survival D + 10 (Klebsiella pneumoniae; K. pneumoniae im. 2 × 10^4) [%] | % protection (Klebsiella pneumoniae; K. pneumoniae im. 1,5 × 10^4) [%] | % survival D + 3 (Klebsiella pneumoniae; K. pneumoniae im. 1,5 × 10^4) [%] | % survival D + 5 (Klebsiella pneumoniae; K. pneumoniae im. 1,5 × 10^4) [%] | % survival D + 10 (Klebsiella pneumoniae; K. pneumoniae im. 1,5 × 10^4) [%] | Titer of antibody 28th day [1] | Titer of antibody 34th day [1] | Titer of antibody 36th day [1] |
| --- | --- | --- | --- | --- | --- | --- | --- | --- | --- | --- | --- |
| CC(=O)N[C@H]1C(O)O[C@H](COC(C)=O)[C@@H](OC(C)=O)[C@@H]1O[C@H](C)C(=O)N[C@@H](C)C(=O)N[C@H](CCC(=O)O)C(N)=O (stereo partly drawn) [4,6-di-O-acetyl-Mur-NAc-L-Ala-D-Glu (OH)-NH2] | 47 | 97 | 84 | 63 | – | – | – | – | – | – | – |
| CC(=O)N[C@H]1C(O)O[C@H](COC(=O)CCC(=O)O)[C@@H](O)[C@@H]1O[C@H](C)C(=O)N[C@@H](C)C(=O)N[C@H](CCC(=O)O)C(N)=O (stereo partly drawn) [6-O-succinyl-Mur-NAc-L-Ala-D-Glu, (OH)-NH2] | 44 | 100 | 91 | 63 | – | – | – | – | – | – | – |
| CC(=O)N[C@@H]1[C@@H](O[C@H](C)C(=O)N[C@@H](C)C(=O)N[C@H](CCC(=O)O)C(N)=O)[C@H](O)[C@@H](CO)O[C@H]1O [Mur-NAc-L-Ala-D-Glu(OH)--NH2, Mur-NAc-L-Ala-D-Glu(OH)-NH2, reference compound] | – | – | – | – | 47 | 83 | 66 | 60 | 25 | 50 | 400 |
| CC(=O)N[C@H]1C(O)O[C@H](CO)[C@@H](O)[C@@H]1OCC(=O)N[C@@H](C)C(=O)N[C@H](CCC(=O)O)C(N)=O (stereo partly drawn) [norMur-NAc-L-Ala-D-Glu(OH)-NH2, 2-(2-acetamido-2-deoxy-3-O-D-glucopyranosyl)-acetyl-L-alanyl-D-isoglutamine] | – | – | – | – | 47 | 78 | 64 | 60 | 25 | 50 | 350 |
